Data: BindingDB's records for doi:10.1021/jm501787c (Duquesne University, 2015)

Legend:
[1] = Binding affinity to human PCFT expressed in Chinese hamster R2/PCFT4 cells assessed as cell growth inhibition after 96 hrs by CellTiter-Blue assay
[2] = Binding affinity to human FRalpha expressed in Chinese hamster RT16 cells assessed as cell growth inhibition after 96 hrs by CellTiter-Blue assay
[3] = Binding affinity to human RFC expressed in Chinese hamster PC43-10 cells assessed as cell growth inhibition after 96 hrs by CellTiter-Blue assay

| SMILES | IC50 [1] | IC50 [2] | IC50 [3] |
| --- | --- | --- | --- |
| Nc1nc2[nH]cc(Cc3ccc(C(=O)N[C@@H](CCC(=O)O)C(=O)O)s3)c2c(=O)[nH]1 | > 1 µM | > 1 µM | > 1 µM |
| Nc1nc2[nH]cc(CCc3ccc(C(=O)N[C@@H](CCC(=O)O)C(=O)O)s3)c2c(=O)[nH]1 | 0.08 µM | 0.55 µM | 0.06 µM |
| Nc1nc2[nH]cc(CCCc3ccc(C(=O)N[C@@H](CCC(=O)O)C(=O)O)s3)c2c(=O)[nH]1 | 0.312 µM | 0.109 µM | 0.116 µM |
| Nc1nc2[nH]cc(CCCCc3ccc(C(=O)N[C@@H](CCC(=O)O)C(=O)O)s3)c2c(=O)[nH]1 | 0.141 µM | 0.049 µM | 0.038 µM |
| Nc1nc2[nH]cc(CCCCCc3ccc(C(=O)N[C@@H](CCC(=O)O)C(=O)O)s3)c2c(=O)[nH]1 | 0.057 µM | 0.046 µM | 0.243 µM |
| Nc1nc2[nH]cc(CCCCCCc3ccc(C(=O)N[C@@H](CCC(=O)O)C(=O)O)s3)c2c(=O)[nH]1 | > 1 µM | > 1 µM | > 1 µM |
| Nc1nc2[nH]c(CCCCc3ccc(C(=O)N[C@@H](CCC(=O)O)C(=O)O)s3)cc2c(=O)[nH]1 [(S)-2-({5-[4-(2-Amino-4-oxo-4,7-dihydro-3H-pyrrolo[2,3-d]-pyrimidin-6-yl)-butyl]-thiophene-2-carbonyl}-amino)-pentanedioicAcid] | – | 0.0018 µM | > 1 µM |
